Series [1] has as its target T1, human CRF receptor I (Homo sapiens, UniProt P34998).
T1 construct: expressed in transfected cells; host or cells: CHO-K1
T1 sequence (P34998 24-415): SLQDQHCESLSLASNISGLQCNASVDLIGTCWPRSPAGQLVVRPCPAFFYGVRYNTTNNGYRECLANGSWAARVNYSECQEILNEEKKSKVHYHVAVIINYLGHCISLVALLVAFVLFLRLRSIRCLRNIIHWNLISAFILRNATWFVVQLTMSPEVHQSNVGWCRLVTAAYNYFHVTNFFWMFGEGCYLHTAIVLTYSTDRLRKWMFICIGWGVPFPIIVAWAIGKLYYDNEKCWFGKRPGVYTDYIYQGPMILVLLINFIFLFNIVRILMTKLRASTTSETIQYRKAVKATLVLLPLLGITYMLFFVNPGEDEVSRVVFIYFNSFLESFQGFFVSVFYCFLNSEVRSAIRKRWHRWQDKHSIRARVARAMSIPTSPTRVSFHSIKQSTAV
The series is described as follows: Receptor antagonistic activity (cyclic AMP assay). In kind it is cell-based. Conditions: accumulated cyclic AMP, human/rat CRF stimulation, cells expressing human CRF receptor I, 37° C. 15 minutes. As to the method: The forced expression cell strain of the human CRF receptor I was cultured at 37° C. under 5% carbon dioxide and 95% air by using a Ham's F-12 medium (F-12 nutrient mixture) containing 10% bovine fetal serum and 1% antibiotic substance-antifungal agent. On the previous day before the cyclic AMP was measured, the cells were inoculated into a 96-well plate in an amount of 1×10^4 cell/well. On the measurement day, the cells were washed twice with a Ham's F-12 medium, whereby a solution of Ham's F-12 medium/1 mM 3-isobutyl-1-methylxanthine (assay medium) (178 μL) was added to each well. After the incubation at 37° C. for 15 minutes, the solutions (2 μL) of evaluation compound in various concentrations were added thereto, or DMSO (2 μL) was added to a CRF group and a blank group. An assay medium (20 μL) containing 10 nM human/rat CRF was added to wells of an evaluation compound group and the CRF group. An assay medium (20 μL) containing 0.00001% acetic acid was added to the blank group. Each group was further incubated at 37° C. for 15 minutes. The supernatant was removed and ice-colded to stop the reaction. Note that the reactions of 2 wells were the same in all reactions. The measurement for accumulated cyclic AMP amount in cells was carried out by using a cyclic AMP Biotrak enzyme immunoassay system (manufactured by GE Healthcare). The accumulated cyclic AMP amounts were calculated by subtracting mean values of corresponding 2 wells in the blank group from that of 2 wells. The IC50 values were calculated with non-linear regression analysis by defining logarithm concentration of the evaluation compound as independent variable and an accumulated cyclic AMP amount as dependent variable.

Series [2] deals with T1, human CRF receptor I. Description: Binding assay (125I-CRF, membrane fraction). Conditions: 125I-CRF 0.25 nM, membrane fraction of CHO-K1 cells expressing human CRF receptor I, room temperature 2 hours. As to the method:
The forced-expression cell strain of the human CRF receptor I (parent strain is CHO-K1 cell) was cultured until the cell was confluent and collected with a scraper. The collected cells were washed twice with PBS, and were suspended with an ice-colded binding assay buffer (Tris-HCl (50 mM, pH 7.0), EDTA (2 mM, pH 8.0), and MgCl2 (10 mM)). After fractured with a dounce-type homogenizer, the suspended cells were centrifuged at 10,000 g, and a membrane fraction was collected. The collected membrane fraction was resuspended with a little amount of the binding assay buffer, thereafter diluted with the binding assay buffer so as to have a concentration of 1 mg/mL. The obtained membrane fraction was used for a binding assay.
^125I-CRF was diluted with the binding assay buffer so as to have a concentration of 0.5 nM, whereby 50 μL of the diluted ^125I-CRF was added to a siliconized 1.5 mL tube. Next, evaluation compounds diluted at appropriate times, DMSO (for general binding), or 100 μM of CRF (for non-specific binding), was added to a […]. Finally, 50 μL of the membrane fraction was added thereto and the reaction was started (final concentration of ^125I-CRF was 0.25 nM). The tube was incubated at room temperature for 2 hours. After the reaction, the tube was centrifuged at 20,000 g in order to collect the membrane fraction. The supernatant was discarded, and the pellet was washed with an ice-colded PBS/0.01% TritonX-100. A membrane binding count was measured using a y counter. The specific binding count was obtained by subtracting the non-specific count from the measured count.

For another series, the system named is Male Wistar rats. The series is described as follows: Water aversive stress model in rats. In kind it is in vivo, rat. Conditions: 3 mg/kg, oral once 30 minutes before stress, 60 minutes after loading the water aversive stress. As to the method: Male Wistar rats of 7 weeks of age were used in the test. A platform of 8.5 cm in diameter and 11 cm in height was arranged in the center of a plastic container (30 cm in length, 45 cm in width, 37 cm in height), and water was filled therein to a depth of about 10 cm. Each rat was put on the platform, and the number of evacuations was counted 5, 30 and 60 minutes thereafter. To the vehicle group, 20% Wellsolve (registered trademark) was orally administered, and an evaluation compound having varied concentrations was orally administered to the evaluation compound group, once 30 minutes before loading the water aversive stress. The dose was set to be 5 ml/kg for both cases.

Another series in a line: Light stability test. It is filed as physicochemical. The conditions noted are these: 2500 Lux (D65 lamp), 25° C., HPLC. As to the method:
After weighing 5 mg of an evaluation compound, it was put into a test tube made of glass which was then sealed with a stop cock. Said test tube was stored at 25° C. for 11 days or 20 days under irradiation of 2500 Lux (a D65 lamp was used as the light source). The evaluation compound after 11 days or 20 days of irradiation was determined by an HPLC apparatus. Survival rate (%) of the evaluation compound was calculated by the following formula. Survival rate of evaluation compound (%)=amount of evaluation compound after 11 days or 20 days of irradiation (mg)/weighed value of evaluation compound (mg)×100 <HPLC Conditions> • Apparatus: A 1200 series (manufactured by Agilent Technologies, Inc.), • Column: YMC-Pack C4, A-802, 150×4.6 mm I.D., S-5 μm, 120 A (manufactured by YMC), • Mobile phase: A: water, B: acetonitrile, A/B: 35/65, • Column temperature: room temperature, • Flow rate: 1.0 mL/min.

Series [3] is described as follows: Stability test under acidic condition. It is filed as physicochemical. The conditions noted are these: ethanol solution / Pharmacopoeia first liquid 1 to 1, 37° C., 24 hours, HPLC. As to the method:
A 1 mg/ml ethanol solution of an evaluation compound and the test liquid first liquid of the disintegration test of The Pharmacopoeia of Japan (to be referred to as Pharmacopoeia first liquid hereinafter) were mixed at a ratio of 1 to 1 (0.5 ml for each) and stirred at 37° C. for 24 hours. Amount of the evaluation compound at 0 minute or after 24 hours was determined by an HPLC apparatus. Survival rate (%) of the evaluation compound was calculated by the following formula. Survival rate of evaluation compound (%)=amount of evaluation compound after 24 hours of treatment with Pharmacopoeia first liquid/amount of evaluation compound just after treatment with Pharmacopoeia first liquid×100 <HPLC Conditions> • Apparatus: A 1200 series (manufactured by Agilent Technologies, Inc.), • Column: YMC-Pack C4, A-802, 150×4.6 mm I.D., S-5 μm, 120 A (manufactured by YMC), • Mobile phase: A: water, B: acetonitrile, A/B: 35/65, • Column temperature: room temperature, • Flow rate: 1.0 mL/min.

Structures are written as SMILES.

By IC50 is commonly meant the concentration that gives 50% inhibition. Read a high IC50 as lower potency. For the compound `CCn1c(-c2ccc(SC)cc2Cl)nn2c(C)cc(C(C)C)c2c1=O` [Example 14(2), 2-[2-chloro-4-(methylthio)phenyl]-3-ethyl-5-isopropyl-7-methylpyrrolo[2,1-f][1,2,4]triazin-4(3H)-one], the IC50 against human CRF receptor I [1] worked out at 2.1 nM; on human CRF receptor I [2] it was 4.5 nM. In addition, in the series on Male Wistar rats, the “increase of the number of evacuations for the vehicle group” value is on record as “significantly inhibited”.
In the case of `CCC(CC)c1cc(C)n2nc(-c3ccc(OC)cc3C)n(C)c(=O)c12` [Example 8(1), 5-(1-ethylpropyl)-2-(4-methoxy-2-methylphenyl)-3,7-dimethylpyrrolo[2,1-f][1,2,4]triazin-4(3H)-one], the “residual ratio after 20 days” value in the series “Light stability test” is reported as 93%. The residual ratio in series [3] was 90%.

These data come from patent US8420810B2, “Bicyclic heterocyclic compound” (Ono Pharmaceutical, Co., Ltd., priority 2007, dated 2013).
